Measurements from patent US20260060936A1, “INDOLIUM-BASED STABILIZERS OF HYDROPHOBIC DRUGS” (TECHNION RESEARCH & DEVELOPMENT FOUNDATION LTD., priority 2022, published 2026).
Values belong to the compound of their own block, whether it stands above or below them.

What was measured:
[1] = DLS size, PDI and stability of copolymer-stabilized nanoparticles (Study 2); assay type: physicochemical; settings: nilotinib nanoparticles
Method: Preparation of nanoparticles. Drugs dissolved in DMSO (Carlo Erba, 10 mg/ml) were added under slight vortex to aqueous dye solution, buffered with 0.1M sodium bicarbonate. IR783 (Sigma-Aldrich) and the polymers' concentrations were 2 mg/ml. […] If the particles were cleaned in centrifuge, the solution was sonicated using Sonics' Vibra-cell ultrasonic processor (20% amplitude, 3 seconds pulses) until homogenous.
Characterization of nanoparticles. DLS measurements were conducted using a Zetasizer Nano ZS (Malvern Panalytical, Malvern, UK).

[2] = Long-term stability and shelf-life of nanoparticles (size and PDI over time); assay type: physicochemical; settings: trametinib nanoparticles with different dyes; within the first 24 hours
Method: (§1) Manual preparation of nanoparticles. 100 μL of drugs dissolved in DMSO (10 mg/ml) were added under slight vortexing to 0.5 ml of 0.1 M sodium bicarbonate buffer containing 1.6 mg/ml R595 (100 μl from 10 mg/ml stock solution in 0.5 ml). For comparison with other stabilizers, the R595 was replaced with the following excipients: Pluronic F-127, sodium lauryl sulfate (SDS), carboxymethyl cellulose (CMC), α-cyclodextrin (αCD), β-cyclodextrin (βCD), βCD-SO3, and human serum albumin (HSA). All compounds were dissolved as 10 mg/ml in DDW. Further comparison of R595 with IR783/IR820 based nanoparticles was also performed in DDW. The solutions were centrifuged (30,000 g, 15 min, room temperature) and the pellet was resuspended in 1 ml of DDW. In the automation process, using the Andrew Alliance pipetting robot (Waters Corp, MA), the nanoparticles were purified using a PD-10 desalting column (Cytiva, Marlborough, MA) and 1.7 ml of eluent was collected after 2.5 ml void volume (defined by the vendor).
Characterization of nanoparticles. Dynamic light scattering (DLS) measurements were conducted using a Zetasizer Nano ZS (Malvern Panalytical, Malvern, UK).

[3] = DLS size and PDI of drug nanoparticles with dye stabilizers (Study 1); assay type: physicochemical; settings: for nanoparticle formation with IR783: stabilizer IR783; for nanoparticle formation with R595: stabilizer R595
Method: as §1, with “For” for “Manual preparation of nanoparticles. 100 μL of drugs dissolved in DMSO (10 mg/ml) were added under slight vortexing to 0.5 ml of 0.1 M sodium bicarbonate buffer containing 1.6 mg/ml R595 (100 μl from 10 mg/ml stock solution in 0.5 ml). For”, “R595” left out, “vendor). Characterization of nanoparticles. Dynamic light scattering (DLS) measurements were conducted using a Zetasizer Nano ZS (Malvern Panalytical, Malvern, UK).” for “vendor).”

[4] = tested on: KPL cells; settings: mouse, in vivo, ip
Method: KRAS driven lung tumor studies. Six-weeks-old female C57BL/6J mice strain were purchased from Envigo RMS. Inducing tumors in the lung was done by injecting 10^5 KPL cells suspended in 200 μl of PBS intravenously (IV) via the tail vein. […] For efficacy studies, treatments were administered biweekly for ten weeks. For safety studies, immunohistochemistry (H&E) was done on treated mice. Animals were euthanized using CO2 inhalation. Mice were housed in air-filtered laminar flow cabinets with a 12-hr light/dark cycle and food and water ad libitum.

[5] = tested on: HCT116; assay: Cell viability assay in 2D (anti-cancer drug-screen); assay type: cell-based, human
Method: (§2) Cell viability assay in 2D. Cells were seeded in 96 well plates at a 30% confluency and allowed to adhere for 24 h. All drugs were dissolved in DMSO. Nanoparticles were suspended in DDW and were added to the wells after dilution with growth medium. Untreated cells (control) were used to establish 100% viability. The effect on cell viability was measured both with Promega® CellTiter-Glo® (CTG) and with images taken by the Lionheart followed by a cell count feature provided by the vendor (BioTeK).

[6] = tested on: KPL; assay: as above; assay type: cell-based, mice
Method: as §2

[7] = tested on: 3T3 cells; assay: Image-based cell counting toxicity assay; set-up: species or system mouse; settings: free drug; attributed to >5% DMSO in the medium
Method: Polymers toxicity assay in 2D. 3T3 Cells were seeded in 96 well plates at a 30% confluency (6000 cells per well) and allowed to adhere for 24 h. Polymers were purified with Sephadex G25 columns, nanoparticles were suspended in DDW and added to the wells. Untreated cells (control) were used to establish 100% viability. The effect on cell viability was measured with MTT (5 mg/ml, Glentham Life Sciences, UK).
In-vitro toxicity and anti-tumor efficacy experiments. First, we tested the three leading copolymers for in-vitro cytotoxicity, using mouse embryonic fibroblast cells (3T3 cells) as a non-cancerous model (FIG. 12). The copolymers were purified with Sephadex G25 columns and were serially diluted in a 96-well plate seeded with the cells. We used two separate viability assays: MTT and an image-based cell counting method using automated microscopy. In the MTT assay we found no reduction in cell viability over control, even in the highest concentration of polymers (FIG. 12, upper and middle panels). […] The cells morphology was not changed following incubation with the polymers, though at higher concentrations intracellular dark vesicles could be observed, indicating cellular uptake into the endo-lysosomal pathway (FIG. 13).

SMILES: COc1cc2nccc(Oc3ccc(NC(=O)NC4CC4)c(Cl)c3)c2cc1C(N)=O [lenvatinib]
nanoparticle formation with IR783 [3]: failed to form nanoparticles
nanoparticle formation with R595 [3]: formed stable nanoparticles

SMILES: CC(=O)Nc1cccc(-n2c(=O)n(C3CC3)c(=O)c3c(Nc4ccc(I)cc4F)n(C)c(=O)c(C)c32)c1 [trametinib]
toxicity as observed with weight changes [4]: no dose limiting toxicities

SMILES: CC(C)C[C@H](NC(=O)[C@H](CCc1ccccc1)NC(=O)CN1CCOCC1)C(=O)N[C@@H](Cc1ccccc1)C(=O)N[C@@H](CC(C)C)C(=O)[C@@]1(C)CO1 [carfilzomib]
potency in cell viability drug-screen with 7 drugs [5]: highest potency
potency in cell viability drug-screen with 7 drugs [6]: highest potency

SMILES: CNC(=O)c1ccc(N2C(=S)N(c3ccc(C#N)c(C(F)(F)F)c3)C(=O)C2(C)C)cc1F [Free enzalutamide, enzalutamide]
toxicity in 3T3 cells [7]: slight toxicity in high concentrations

SMILES: CCc1c2c(nc3ccc(OC(=O)N4CCC(N5CCCCC5)CC4)cc13)-c1cc3c(c(=O)n1C2)COC(=O)[C@]3(O)CC [irinotecan]
nanoparticle formation with IR783 [3]: failed to form nanoparticles
nanoparticle formation with R595 [3]: formed stable nanoparticles

Second part, the compound after the results:

time to aggregation [1]: ≤ 24 h
SMILES: CC1(C)C(=CC=C2CCCC(C=CC3=[N+](CCCCS(=O)(=O)[O-])c4ccccc4C3(C)C)=C2Cl)N(CCCCS(=O)(=O)[O-])c2ccccc21.[Na+] [IR783]

stabilizer comparison (size and PDI) [2]: better stabilizer than IR783
SMILES: CC1(C)C(=CC=C2CCCC(C=CC3=[N+](CCCCS(=O)(=O)[O-])c4ccc5ccccc5c4C3(C)C)=C2Cl)N(CCCCS(=O)(=O)[O-])c2ccc3ccccc3c21.[Na+] [IR820]
